Source: US11208435B2, “Verticilide enantiomer and methods of inhibiting cardiac ryanodine receptor-mediated intracellular calcium release” (Vanderbilt University, priority 2017, dated 2021)

How the values were obtained:
RyR2 [1] = target: T1, RyR2 (Mus musculus, UniProt E9Q401); test: Ca2+ sparks in permeabilized wild-type myocytes; type: cell-based; details: 3 μM ent-1, 25 μM flecainide, 50 μM tetracaine
T1 construct: spontaneous openings of intracellular RyR2; endogenous in cells; host or cells: ventricular cardiomyocytes isolated from Casq2-/- mice (A1, A6) or wild-type mice (A5)
T1 sequence (E9Q401 whole entry): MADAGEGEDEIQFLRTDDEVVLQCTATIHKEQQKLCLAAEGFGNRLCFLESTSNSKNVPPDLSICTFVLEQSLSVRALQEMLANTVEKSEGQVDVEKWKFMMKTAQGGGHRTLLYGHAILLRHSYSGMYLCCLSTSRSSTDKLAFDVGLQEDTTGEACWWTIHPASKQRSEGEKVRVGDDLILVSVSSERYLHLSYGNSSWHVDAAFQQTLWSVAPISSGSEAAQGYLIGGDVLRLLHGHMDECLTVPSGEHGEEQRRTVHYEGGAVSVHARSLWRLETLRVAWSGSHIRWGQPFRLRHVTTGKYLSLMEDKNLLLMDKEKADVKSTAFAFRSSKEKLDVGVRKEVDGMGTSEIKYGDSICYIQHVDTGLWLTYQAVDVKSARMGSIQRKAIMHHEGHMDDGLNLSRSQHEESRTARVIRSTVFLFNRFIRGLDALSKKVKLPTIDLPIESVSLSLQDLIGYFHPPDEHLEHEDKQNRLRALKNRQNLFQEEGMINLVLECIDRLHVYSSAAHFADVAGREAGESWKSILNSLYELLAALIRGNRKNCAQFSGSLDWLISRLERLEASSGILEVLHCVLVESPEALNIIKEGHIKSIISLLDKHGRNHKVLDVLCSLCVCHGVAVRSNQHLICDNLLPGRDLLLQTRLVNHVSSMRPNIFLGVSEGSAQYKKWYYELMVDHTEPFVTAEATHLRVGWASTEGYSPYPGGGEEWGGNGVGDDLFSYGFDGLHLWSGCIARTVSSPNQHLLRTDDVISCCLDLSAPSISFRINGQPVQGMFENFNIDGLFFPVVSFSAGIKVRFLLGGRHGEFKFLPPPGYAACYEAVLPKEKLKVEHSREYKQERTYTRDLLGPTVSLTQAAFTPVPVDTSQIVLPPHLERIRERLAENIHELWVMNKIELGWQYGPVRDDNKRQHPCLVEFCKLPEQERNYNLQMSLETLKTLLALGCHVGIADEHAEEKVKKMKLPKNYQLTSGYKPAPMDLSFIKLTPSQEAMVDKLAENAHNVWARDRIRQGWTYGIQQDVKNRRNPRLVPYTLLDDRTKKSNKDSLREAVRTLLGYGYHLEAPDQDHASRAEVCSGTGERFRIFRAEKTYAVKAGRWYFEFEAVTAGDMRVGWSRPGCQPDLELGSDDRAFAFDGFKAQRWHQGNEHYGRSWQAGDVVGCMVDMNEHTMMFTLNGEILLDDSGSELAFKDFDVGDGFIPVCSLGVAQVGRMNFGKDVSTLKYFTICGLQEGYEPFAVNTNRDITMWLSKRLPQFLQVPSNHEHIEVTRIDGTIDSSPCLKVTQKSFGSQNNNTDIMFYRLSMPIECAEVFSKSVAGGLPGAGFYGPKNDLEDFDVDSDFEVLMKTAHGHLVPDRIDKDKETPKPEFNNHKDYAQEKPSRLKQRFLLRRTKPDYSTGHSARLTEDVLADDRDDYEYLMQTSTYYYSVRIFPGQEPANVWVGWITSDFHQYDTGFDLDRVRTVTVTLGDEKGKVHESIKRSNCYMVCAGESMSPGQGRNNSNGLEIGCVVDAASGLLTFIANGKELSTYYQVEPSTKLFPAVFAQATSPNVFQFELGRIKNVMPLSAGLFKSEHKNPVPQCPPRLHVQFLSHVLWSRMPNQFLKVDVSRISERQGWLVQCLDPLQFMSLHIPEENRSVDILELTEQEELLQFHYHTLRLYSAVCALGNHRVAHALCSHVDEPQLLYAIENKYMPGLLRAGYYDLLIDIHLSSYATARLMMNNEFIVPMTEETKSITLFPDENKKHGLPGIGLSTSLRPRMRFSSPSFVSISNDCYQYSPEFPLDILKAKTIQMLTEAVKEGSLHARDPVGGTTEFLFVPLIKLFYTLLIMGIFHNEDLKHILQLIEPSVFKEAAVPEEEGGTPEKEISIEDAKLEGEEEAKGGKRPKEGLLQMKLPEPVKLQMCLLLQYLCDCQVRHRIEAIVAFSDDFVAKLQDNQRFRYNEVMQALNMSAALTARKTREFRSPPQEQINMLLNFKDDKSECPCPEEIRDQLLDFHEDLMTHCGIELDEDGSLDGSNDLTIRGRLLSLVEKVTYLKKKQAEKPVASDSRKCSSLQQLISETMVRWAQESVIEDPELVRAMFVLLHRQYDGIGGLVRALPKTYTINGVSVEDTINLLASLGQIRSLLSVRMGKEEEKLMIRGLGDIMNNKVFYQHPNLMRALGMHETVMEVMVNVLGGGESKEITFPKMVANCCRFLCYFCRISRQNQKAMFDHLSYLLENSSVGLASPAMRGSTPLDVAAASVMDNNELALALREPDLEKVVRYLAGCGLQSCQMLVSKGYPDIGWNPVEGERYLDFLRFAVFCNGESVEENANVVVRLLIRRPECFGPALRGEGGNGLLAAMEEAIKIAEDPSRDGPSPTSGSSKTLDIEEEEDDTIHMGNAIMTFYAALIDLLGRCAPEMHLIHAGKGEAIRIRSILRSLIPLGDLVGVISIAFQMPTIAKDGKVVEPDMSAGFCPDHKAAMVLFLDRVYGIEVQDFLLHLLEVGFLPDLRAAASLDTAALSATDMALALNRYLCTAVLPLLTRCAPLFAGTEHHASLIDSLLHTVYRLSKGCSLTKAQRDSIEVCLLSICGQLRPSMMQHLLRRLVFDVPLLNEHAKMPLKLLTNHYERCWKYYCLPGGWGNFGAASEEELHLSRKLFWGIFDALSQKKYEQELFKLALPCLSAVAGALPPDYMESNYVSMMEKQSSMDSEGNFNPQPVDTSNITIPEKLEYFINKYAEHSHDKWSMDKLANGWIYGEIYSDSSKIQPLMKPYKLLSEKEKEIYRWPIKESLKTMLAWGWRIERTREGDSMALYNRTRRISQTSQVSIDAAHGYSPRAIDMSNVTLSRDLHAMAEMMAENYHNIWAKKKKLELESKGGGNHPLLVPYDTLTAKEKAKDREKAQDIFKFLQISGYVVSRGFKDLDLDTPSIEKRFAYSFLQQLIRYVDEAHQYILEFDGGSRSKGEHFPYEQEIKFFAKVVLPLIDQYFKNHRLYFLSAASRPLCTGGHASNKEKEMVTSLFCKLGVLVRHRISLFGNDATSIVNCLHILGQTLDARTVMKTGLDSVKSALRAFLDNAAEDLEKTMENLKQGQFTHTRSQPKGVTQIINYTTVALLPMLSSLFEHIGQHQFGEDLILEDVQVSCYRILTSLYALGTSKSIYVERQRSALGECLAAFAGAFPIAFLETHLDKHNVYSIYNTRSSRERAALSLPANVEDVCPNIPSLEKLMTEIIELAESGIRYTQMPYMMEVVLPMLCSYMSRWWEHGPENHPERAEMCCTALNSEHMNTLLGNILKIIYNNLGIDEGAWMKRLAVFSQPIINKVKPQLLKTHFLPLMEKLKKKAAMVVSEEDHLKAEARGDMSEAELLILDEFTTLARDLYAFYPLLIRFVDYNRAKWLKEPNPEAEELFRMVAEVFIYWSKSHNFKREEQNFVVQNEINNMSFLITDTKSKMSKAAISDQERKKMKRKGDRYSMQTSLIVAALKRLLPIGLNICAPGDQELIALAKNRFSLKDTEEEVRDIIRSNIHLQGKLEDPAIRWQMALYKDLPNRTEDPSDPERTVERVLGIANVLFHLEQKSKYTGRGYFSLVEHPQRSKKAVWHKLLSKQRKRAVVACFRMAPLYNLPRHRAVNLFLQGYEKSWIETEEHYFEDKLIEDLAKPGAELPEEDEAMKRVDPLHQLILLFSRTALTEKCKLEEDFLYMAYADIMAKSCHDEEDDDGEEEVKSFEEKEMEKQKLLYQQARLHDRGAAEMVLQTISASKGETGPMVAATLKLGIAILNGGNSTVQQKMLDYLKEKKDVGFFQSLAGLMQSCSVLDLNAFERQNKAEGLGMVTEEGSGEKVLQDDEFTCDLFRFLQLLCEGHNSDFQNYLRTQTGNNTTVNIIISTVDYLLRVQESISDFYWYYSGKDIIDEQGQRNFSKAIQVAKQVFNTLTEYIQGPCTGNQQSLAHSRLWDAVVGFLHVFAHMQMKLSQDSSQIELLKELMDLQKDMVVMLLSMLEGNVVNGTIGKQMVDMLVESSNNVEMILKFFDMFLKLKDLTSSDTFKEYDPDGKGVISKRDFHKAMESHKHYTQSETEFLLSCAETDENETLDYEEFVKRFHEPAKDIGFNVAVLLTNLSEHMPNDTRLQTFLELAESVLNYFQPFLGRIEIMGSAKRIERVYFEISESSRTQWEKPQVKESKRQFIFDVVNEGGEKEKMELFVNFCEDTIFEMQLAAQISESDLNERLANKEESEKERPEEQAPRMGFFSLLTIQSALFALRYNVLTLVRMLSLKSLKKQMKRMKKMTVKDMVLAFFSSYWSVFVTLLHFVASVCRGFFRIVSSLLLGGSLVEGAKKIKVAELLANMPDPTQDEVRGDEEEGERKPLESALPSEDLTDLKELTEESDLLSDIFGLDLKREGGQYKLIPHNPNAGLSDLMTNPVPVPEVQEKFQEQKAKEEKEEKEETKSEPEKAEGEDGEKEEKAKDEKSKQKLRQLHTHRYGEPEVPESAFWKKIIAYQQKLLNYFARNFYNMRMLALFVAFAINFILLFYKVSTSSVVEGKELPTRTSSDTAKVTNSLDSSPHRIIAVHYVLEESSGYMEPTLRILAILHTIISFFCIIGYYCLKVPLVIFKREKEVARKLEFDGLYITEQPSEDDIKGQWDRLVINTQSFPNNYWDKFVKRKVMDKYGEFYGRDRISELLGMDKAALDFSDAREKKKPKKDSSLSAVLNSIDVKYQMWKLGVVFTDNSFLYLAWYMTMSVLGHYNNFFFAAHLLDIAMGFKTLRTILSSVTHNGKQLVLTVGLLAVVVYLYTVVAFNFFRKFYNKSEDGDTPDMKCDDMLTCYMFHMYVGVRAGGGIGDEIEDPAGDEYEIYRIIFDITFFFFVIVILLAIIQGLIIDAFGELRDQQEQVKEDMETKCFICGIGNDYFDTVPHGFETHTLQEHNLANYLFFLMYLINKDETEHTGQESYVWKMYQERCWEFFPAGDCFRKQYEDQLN
Method: (§1) (FIG. 2A) Representative confocal line scans of Ca2+ sparks in the absence (DMSO) or presence of 25 μM nat-1 or ent-1 in permeabilized Casq2−/− cardiomyocytes. (FIG. 2B) Ca2+ spark frequency in Casq2−/− cells treated with 25 μM nat-1, 7, 8, and their respective enantiomers. (FIG. 2C) Comparison of [3H]ryanodine binding to SR isolated from porcine longissimus dorsi (RyR1) or cardiac ventricle (RyR2) in the presence of 50 μM nat-1, ent-1, or tetracaine (tet). (FIG. 2D) Dose response curves for ent-1 and tet inhibition of [3H]ryanodine binding to RyR2. (FIG. 2E) Representative Ca2+ sparks from permeabilized wild-type cardiomyocytes treated with 3 μM ent-1, 25 μM flecainide, or 50 μM tetracaine. Graph indicates amplitude of Ca2+ release of the selected representative sparks over time. (FIG. 2F) Percent change in spark frequency, amplitude, mass, leak, and SR Ca2+ content relative to vehicle (DMSO), obtained from wild-type myocytes. SR Ca2+ content was measured as the Ca2+ transient amplitude elicited by application of 10 mM caffeine (n≥5 cells per group). Data are presented as mean±SEM. N≥30 cells per group for A, B, and F. N=4 replicates for each concentration tested in C and D. *p<0.05 vs DMSO, **p<0.01 vs DMSO, ***p<0.001 vs DMSO by 1-way ANOVA with Tukey's post-hoc test (B) or t-test (C, D, and F).
(§2) Skeletal and cardiac SR were incubated with 50 μM nat-1, ent-1, and tetracaine for three hours. Nat-1 increased RyR1 activity, but had no effect on RyR2 (FIG. 2C). Conversely, ent-1 inhibited RyR2, but had no effect on RyR1. The well-established RyR inhibitor, tetracaine, inhibited both isoforms. Ent-1 was selected to generate full dose response curves for both cardiac and skeletal SR. Ent-1 inhibited RyR2 in a concentration-dependent manner with an apparent IC50 of approximately 0.1 μM and maximal inhibition of approximately 20% (FIG. 2D), but had no effect on RyR1 up to 50 μM (Figure S2). […] To further characterize the Ca^2+ release inhibition by ent-1, the present inventors applied a lower concentration (3 μM) to wild type mouse myocytes and compared results to two other classical Ca^2+ release inhibitors, flecainide and tetracaine (representative line scans and sparks are shown in FIG. 2E).

spontaneous Ca^2+ waves = details: 10 μM; cited from earlier work
RyR2 [2] = target: T2, RyR2 (Sus scrofa, UniProt A0A5G2R1W3); test: [3H]ryanodine binding to cardiac SR; set-up: species or system porcine; details: for [3H]ryanodine binding (RyR2 activity): 50 μM, three hours
T2 construct: cardiac ventricle (RyR2); from tissue; host or cells: porcine cardiac ventricle sarcoplasmic reticulum
Method: as §1, §2

Casq2^−/− mice = test: Catecholamine-induced ventricular arrhythmia, ECG in Casq2-/- mice; type: in vivo, mouse; details: 30 mg/kg i.p.
Method: (FIG. 3A) Isolated cardiomyocytes were field stimulated at 3 Hz for 20 seconds followed by 40 seconds recording of SCR events (†). Application of 10 mM caffeine (caff) was used to measure SR Ca2+ content. (FIG. 3B) SCR frequency following cessation of pacing. N=63, 27, 31, 63, 30, and 27 cells for […] ent-1, respectively. **p<0.01, ***p<0.001 vs DMSO by t-test. (FIG. 3C) Representative heart rate traces in Casq2−/− mice treated with DMSO or ent-1. Isoproterenol (3.0 mg/kg i.p.) was injected at 0 s. Rhythm strips show arrhythmia features. Ectopic beats (†) produce a variable HR in the traces. (FIG. 3D) Quantification of catecholamine-induced ectopic beats by surface electrocardiogram in Casq2−/− mice injected intraperitoneally with 30 mg/kg (drug/body weight) nat-1 or ent-1 or DMSO of equivalent volume 30 minutes prior to recordings. ***p<0.001 vs DMSO or ###p<0.001 vs nat-1 by Mann-Whitney U-test. (FIG. 3E) Incidence of ventricular tachycardia (VT). p=0.0305 for ent-1 vs DMSO (*) or ent-1 vs nat-1 (#) by Fisher's exact test. N=22 mice per group (D and E). Data in B and D presented as mean±SEM.
To determine whether ent-1 inhibition of Ca^2+ release in cardiomyocytes in vitro translates into activity against ventricular arrhythmia in vivo, Casq2^−/− mice were injected intraperitoneally with 30 mg/kg nat-1, ent-1, or DMSO of equivalent volume. […]

RyR1 = target: T3, RyR1 (Sus scrofa, UniProt P16960); test: [3H]ryanodine binding to skeletal muscle SR; set-up: species or system porcine; details: 50 μM, three hours
T3 construct: SR isolated from porcine longissimus dorsi (RyR1); from tissue; host or cells: porcine longissimus dorsi sarcoplasmic reticulum
Method: as §1, with “F). […]” for “F).”

insect RyR = details: read-out: IC50, binding insect RyR; cited from earlier work
RyR2 [3] = target: T1, RyR2; test: Ca2+ sparks in saponin-permeabilized Casq2-/- ventricular myocytes; type: cell-based; details: 25 μM, permeabilized Casq2-/- cardiomyocytes, vs DMSO
Method: (FIG. 2A) Representative confocal line scans of Ca2+ sparks in the absence (DMSO) or presence of 25 μM nat-1 or ent-1 in permeabilized Casq2−/− cardiomyocytes. (FIG. 2B) Ca2+ spark frequency in Casq2−/− cells treated with 25 μM nat-1, 7, 8, and their respective enantiomers. (FIG. 2C) Comparison of [3H]ryanodine binding to SR isolated from porcine longissimus dorsi (RyR1) or cardiac ventricle (RyR2) in the presence of 50 μM nat-1, ent-1, or tetracaine (tet). (FIG. 2D) Dose response curves for ent-1 and tet inhibition of [3H]ryanodine binding to RyR2. (FIG. 2E) Representative Ca2+ sparks from permeabilized wild-type cardiomyocytes treated with 3 μM ent-1, 25 μM flecainide, or 50 μM tetracaine. […] SR Ca2+ content was measured as the Ca2+ transient amplitude elicited by application of 10 mM caffeine (n≥5 cells per group). […]
Ventricular mouse myocytes were isolated, permeabilized with saponin to enable equivalent access of the compounds to the SR membrane, and incubated with DMSO or 25 μM nat- and ent-1, 7, 8. RyR2 activity was measured in the form of Ca^2+ sparks, which are elementary Ca^2+ release events generated by spontaneous openings of intracellular RyR2 Ca^2+ release channels. […] To confirm that [Ca^2+]free was not altered by any of the compounds, Fluo-4 fluorescence was measured under spark assay conditions. […]

[4] = [Ca2+]free by Fluo-4 fluorescence under spark assay conditions; type: physicochemical; details: 25 μM, 10 minutes in internal spark solution
Method: Ventricular mouse myocytes were isolated, permeabilized with saponin to enable equivalent access of the compounds to the SR membrane, and incubated with DMSO or 25 μM nat- and ent-1, 7, 8. RyR2 activity was measured in the form of Ca^2+ sparks, which are elementary Ca^2+ release events generated by spontaneous openings of intracellular RyR2 Ca^2+ release channels. […] Cardiac SR Ca^2+ release is sensitive to the Ca^2+ concentration present at the cytosolic face of RyR2. To confirm that [Ca^2+]free was not altered by any of the compounds, Fluo-4 fluorescence was measured under spark assay conditions. The internal spark solution was incubated with DMSO or 25 μM nat-1, 7, 8, and their respective enantiomers for 10 minutes and [Ca^2+]free was calculated from a set of Ca^2+ standards.

Ca2+ spark frequency (RyR2 [1])	Ca2+ spark mediated SR Ca2+ leak (RyR2 [1])	SMILES	Ca2+ spark mass (RyR2 [1])	[3H]ryanodine binding (RyR1 activity) (RyR1)	[3H]ryanodine binding (RyR2 activity) (RyR2 [2])	also measured
paradoxical increase	leak-neutral blocker	O=C(NCC1CCCCN1)c1cc(OCC(F)(F)F)ccc1OCC(F)(F)F (stereo not drawn) [flecainide]	reduces the amount of Ca^2+ released during a spark			effectiveness in suppressing spontaneous Ca2+ waves (spontaneous Ca^2+ waves): 30%
		CCCCC[C@@H]1OC(=O)[C@@H](C)N(C)C(=O)[C@H](CCCCC)OC(=O)[C@@H](C)N(C)C(=O)[C@H](CCCCC)OC(=O)[C@@H](C)N(C)C(=O)[C@H](CCCCC)OC(=O)[C@@H](C)N(C)C1=O (single isomer, unassigned) [ent-1, ent-(+)-verticilide]				IC50 (RyR2 [2]): ~100 nM; maximal inhibition of [3H]ryanodine binding to RyR2 (RyR2 [2]; dose response, cardiac SR): approximately 20%; ECG PR interval (Casq2^−/− mice; index of Ca2+ channel block): no significant effect; ECG QRS duration (Casq2^−/− mice; index of Na+ channel block): no significant effect
		CCCCCC1OC(=O)C(C)N(C)C(=O)C(CCCCC)OC(=O)C(C)N(C)C(=O)C(CCCCC)OC(=O)C(C)N(C)C(=O)C(CCCCC)OC(=O)C(C)N(C)C1=O (single isomer, unassigned; (-)) [nat-1, (−)-Verticilide]		increased	no effect	IC50 (insect RyR): 4200 nM; Ca2+ spark frequency (RyR2 [3]): no effect; binding to Ca2+ ([Ca2+]free) [4]: did not bind to Ca^2+
depresses	only modestly reduces	CCCCNc1ccc(C(=O)OCCN(C)C)cc1 [tetracaine]	did not reduce	inhibited	inhibited	
